Assay results: patent US20200352947A1, “USE OF SEROTONERGIC DRUGS TO TREAT VIRUS-INDUCED THROMBOCYTOPENIA” (NATIONAL UNIVERSITY OF SINGAPORE, priority 2017, published 2020)

Legend:
JEV-infected mice = assay: Platelet counts in JEV-infected mice; type: in vivo; details: 10^6 pfu JEV IP, ketanserin 8 mg/kg at 1 hour post-infection, 24 hours, n=5
Description: Platelet counts of JEV infected mice. Mice were infected with 10^6 pfu of JEV intraperitoneally and were vehicle- or ketanserin-treated (8 mg/kg) at 1 hour post-infection. At 24 hours, blood was collected and platelet counts were measured. The drop in platelet counts induced by JEV was prevented by ketanserin treatment (n=5). Mean values are presented and error bars represent the SEM. P values were determined by Student's unpaired t test; *p<0.05.
Japanese encephalitis virus (JEV) is a flavivirus related to dengue, so the ability of ketanserin to inhibit JEV-induced thrombocytopenia was also tested. Mice were infected with 10^6 pfu of JEV IP, and were treated at 1 hour post-infection with vehicle (1% DMSO) or ketanserin (8 mg/kg). At 24 hours, blood was collected and platelet counts were measured. The reduction in platelet counts induced by JEV was inhibited by ketanserin treatment (FIG. 14).

[1] = system: DENV2-infected IFNαβγ-KO mice; assay: Platelet counts in DENV2-infected mice deficient in interferon signalling; type: in vivo; details: 10^6 pfu DENV2 IP, ketanserin 8 mg/kg IP once daily, 24 and 72 hours post-infection, n=5
Description: Platelet counts of DENV2 infected mice. Mice deficient in interferon signalling (IFNαβγ-KO) were infected via intraperitoneal route (IP) with 10^6 plaque forming units (pfu) and were given either vehicle (1% DMSO) or ketanserin 8 mg/kg […]. Blood was taken via cheek bleed 24 and 72 hours post-infection and platelet counts were measured using an automated hematology analyzer. DENV2 infection induced thrombocytopenia, but ketanserin treatment was able to prevent thrombocytopenia (n=5). Mean values are presented and error bars represent the SEM. P values were determined by Student's unpaired t test; ****P<0.0001.
These mice are commonly used in the study of DENV as their deficiency in interferon signaling results in sustained DENV replication [St John, A. L., et al., eLife 2, e00481 (2013)]. IFNαβγ-KO mice were infected via the intraperitoneal route (IP) with 10^6 plaque forming units (pfu) of DENV2 and were given either vehicle (1% DMSO) or ketanserin (8 mg/kg) IP once daily thereafter. Blood was taken via cheek bleed 24 and 72 hours post-infection and platelet counts were measured using an automated hematology analyzer.

human platelets = assay: Platelet activation (CD41/CD62P flow cytometry) in stimulated human whole blood; type: cell-based; details: ketanserin 100 nM or 500 nM, 15 min; n=4
Description: (A) Whole blood from healthy human volunteers was isolated and stimulated with DENV2, serotonin, or DENV2+serotonin for 15 min. Cells were then fixed and stained for platelet markers CD41 and CD62P and analyzed by flow cytometry. DENV raised the activation levels of platelets. […] (B) Human whole blood was stimulated with DENV2, mast cells (MCs) or DENV2+MCs in the presence of vehicle or ketanserin (100 nM or 500 nM) for 15 min prior to assessment of platelet activation. […] Mean values are presented and error bars represent the SEM. P values were determined by one-way ANOVA; *P<0.05, ** P<0.01, ***P<0.001, ****P<0.0001, ns: non-significant.
Additionally, products from DENV-stimulated human mast cells promoted platelet activation, dependent on platelet 5HT2A receptor, since this effect was abolished by ketanserin (FIG. 9B). […] Furthermore, ketanserin is effective in reversing DENV-induced human platelet activation.

DENV2 = assay: DENV viral load by qRT-PCR in IFNR-KO mice; type: in vivo; details: DENV2 2×10^5 pfu i.p., ketanserin 8 mg/kg daily, 72 h post-infection
Description: (A) WT mice were treated with vehicle or ketanserin (8 mg/kg) prior to subcutaneous footpad injection with 2×10^5 pfu of DENV or PBS. At 72 h post-infection, popliteal lymph nodes were isolated for viral quantification by qRT-PCR. […] (B-C) WT mice were infected with DENV2 (1×10^6 pfu, i.p.) and treated daily with either 8 mg/kg of ketanserin or vehicle. […] (C) At 1 day post-infection, the spleen was harvested and DENV2 was quantified by qRT-PCR.
Since a concern with inhibition of host factors would be the effect on viral replication, the levels of viremia following DENV infection were measured. WT mice were treated with either ketanserin or vehicle prior to a subcutaneous footpad injection. The draining lymph nodes were then harvested to determine if targeting 5HT2A receptors had any influence on viral load. […] Subsequently it was determined whether targeting serotonin would have an effect on viral load in systemic infection. WT mice were treated with either ketanserin or vehicle following DENV systemic infection via intraperitoneal injection. Serum was isolated at days 1 and 3 post-infection and viremia quantified. […] The second model of severe DENV infection, the IFN-α,β, γ-R^−/− (IFNR-KO) mice, were subsequently infected and treated with either ketanserin or vehicle. These mice are known to have higher levels of viremia than WT mice.

## O=C(c1ccc(F)cc1)C1CCN(CCn2c(=O)[nH]c3ccccc3c2=O)CC1 [ketanserin, 3-[2-[4-(4-fluorobenzoyl)piperidin-1-yl]ethyl]-1H-quinazoline-2,4-dione]
JEV-infected mice
  reduction in platelet counts induced by JEV: inhibited
[1]
  platelet counts (DENV2-induced thrombocytopenia): able to maintain the initial normal platelet count
Human platelets
  platelet activation in human whole blood stimulated with DENV2+mast cells: abolished the significant increase in platelet activation
DENV2
  viral load in serum: no difference in viral load
  viral load in spleen: no difference in viral load
